From patent US20250263370A1 (Tay Therapeutics Limited, priority 2022, published 2025)
Read-outs that look alike come from different tables or passages of the source.

What was measured:
BRD4 BD1 = BRD4 BD1 (Homo sapiens (Human), UniProt O60885); assay: NanoBRET bromodomain assay, NanoLuc-BRD4-BD1 fusion in HEK293 cells; format: cell-based; conditions: top concentration 10 μM
[1] = Plasma stability assay, rat plasma; format: in vitro ADME; conditions: Method 2 (10 μM)
Method: From stock solution of compound in 10 mM DMSO, a working solution of 1 mM is prepared by diluting the compound in DMSO. To 398 μL of plasma pre-warmed at 37° C. for 15 minutes), 2 μL of working solution of compound is added, resulting in a final concentration of 5 μM (0.5% DMSO) for the compound. The sample is then incubated at 37° C. Aliquot is withdrawn at specified time-points (0, 15, 30, 60 and 120 mins). The reaction is stopped by addition of 450 μL cold acetonitrile containing internal standard (IS). […] Aliquots of the supernatant is analysed using LC-MS/MS. The percent remaining of the compound at each time point is calculated with respect to the control sample (0 min time-point).
A working solution of compound (500 μM) is prepared in DMSO (100%). To 735 μL of plasma, 15 μL of working solution of compound is added—resulting in a final concentration of 10 μM (2% DMSO) for the compound. The sample is then incubated at 37° C. Aliquot is withdrawn at time-points—0, 15, 30, 60, 90 and 120 mins. The reaction is stopped by using chilled acetonitrile containing internal standard (IS). The samples are centrifuged and the supernatants analyzed using LC-MS/MS. The percent remaining of the compound at each time point is calculated with respect to the control sample (0 min time-point).

[2] = Intrinsic clearance in liver microsomes, rat; format: in vitro ADME; conditions: rat, liver microsomes, pH 7.4, rat liver microsomes, read-out: Half-Life (T1/2) (min), Rat
Method: From stock solution of compound on 10 mM DMSO, a working solution of 0.1 mM is prepared by diluting the compound in DMSO. 6.25 μL of a 20 mg/mL solution of microsomes in PBS pH 7.4 buffer is added to 216.25 μL PBS pH 7.4 buffer (final microsome concentration—0.5 mg/mL). 25 μL of 10 mM solution of NADPH in PBS pH 7.4 buffer is added to the incubations (final NADPH concentration—1 mM). The mixture is pre-warmed to 37° C. for 10 minutes. 2.5 μL of test compound working solution is added (final compound concentration—1 μM with 1% DMSO). Aliquots of 30 μL are taken from the reaction solution at 0.5, 5, 15, 30 and 60 minutes. The reaction was stopped by the addition of 5 volumes of cold acetonitrile with IS (100 nM alprazolam, 200 nM caffeine and 100 nM tolbutamide). Samples were centrifuged at 3, 220 g for 40 minutes. Aliquots of 100 μL of the supernatant are mixed with 100 μL of ultra-pure H2O and used for LC-MS/MS analysis. The percent compound remaining at each time point is calculated with respect to that of the 0.5 min sample. The data are analysed to calculate half-life. Control experiments are run without NADPH and blank samples are prepared using DMSO without the test compound.
A 50 mM stock solution (in DMSO) is prepared for the compound. From the stock solution, a working solution of 0.5 mM is prepared by diluting the compound in DMSO. This concentration of working solution is prepared considering a final concentration of 1 uM with 0.1% DMSO. The compound (1 μL of working solution) is spiked in PBS with pH 7.4 ([…]) at a concentration of 1 μM. Subsequently, 110 μL of 10 mM NADPH is added (as a co-factor). The sample is incubated at 37° C. for 15 min. Following this, pre-warmed liver microsomes (27.5 μL; final protein conc. 0.5 mg/mL) are added. The samples are then incubated at 37° C. Aliquots of samples are withdrawn at 0, 5, 15, 30, 45 and 60 min. The reaction is stopped by using chilled acetonitrile containing internal standard. The samples are centrifuged, and the supernatants analysed by LC-MS/MS. The percent compound remaining at each time point is calculated with respect to that of the 0 min sample. The data are then analysed to calculate half-life and intrinsic clearance (CLint). Control experiments are run without NADPH and blank samples are prepared using DMSO without the test compound.

[3] = Sprague-Dawley rat pharmacokinetics, IV and PO cassette dosing; format: in vivo; conditions: for IV T1/2 / PO F: Method 1; for PO F: PO 5 mg/kg
Method: Compounds were formulated in 5% DMSO, 40% PEG-400, 55% Milli-Q water at a concentration of 0.2 mg/mL for IV and at 0.5 mg/mL for PO. Two male Sprague-Dawley rats per arm were dosed with up to 5 compounds in cassette mode, which each compound being dosed at 1 mg/kg IV and 5 mg/kg PO. Blood was sampled at various timepoints and plasma isolated. 50 μL of plasma with 5 μL of blank Sprague-Dawley rat plasma were added to 200 μL of acetonitrile containing IS mixture. The samples were vortexed for 30 s. After centrifugation at 4 degrees Celsius, 3900 rpm for 15 min, the supernatant was diluted 3 times with water. 20 μL of diluted supernatant was injected into the LC/MS/MS system for quantitative analysis and concentration of analyte determined by comparison with matrix matched standard curve. WinNonlin (Phoenix™, version 8.3) or other similar software may be used for pharmacokinetic calculations.

BRD4 BD2 = BRD4 BD2 (Homo sapiens (Human), UniProt O60885); assay: NanoBRET bromodomain assay, NanoLuc-BRD4-BD2 fusion in HEK293 cells; conditions: for IC50: BRD4 BD2 (IC50), NanoBRET, HEK293 cells, top concentration 10 μM; for Fold selectivity: IC50 for BRD4 BD1 divided by IC50 for BRD4 BD2, qualitative if an IC50 is at the upper limit;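 for all read-outs here: tracer displacement BRET read in transfected cells after 2 h compound exposure at 37 °C, signal in milliBRET units corrected against no-tracer background wells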

| Structure (SMILES) | IC50 (BRD4 BD1) [nM] | Plasma Stability (% remaining at 120 minutes), Rat [1] [%] | half-life at 1 μM ([2]; Method 1) [min] | IV T1/2 ([3]; IV 1 mg/kg) [min] | PO F [3] [%] | IC50 (BRD4 BD2) [nM] | Fold selectivity (BRD4 BD2) | half-life ([3]; male, Sprague-Dawley, rat, plasma, iv, 1 mg/kg, IV 1 mg/kg, Method 1, read-out: IV T1/2 (converted)) [min] | half-life at 1 μM ([2]; Method 2) [min] |
| --- | --- | --- | --- | --- | --- | --- | --- | --- | --- |
| CNC(=O)c1[nH]c(C(=O)NC2CCC2)cc1OC(C)c1ccc(Cl)cc1 (single isomer, unassigned) [Example 27, 3-(1-(4-chlorophenyl)ethoxy)-N^5-cyclobutyl-N^2-methyl-1H-pyrrole-2,5-dicarboxamide] | ≥ 10000 | 47 | 47 | 24 | 47 | < 50 | XXX (Fold >200) | – | – |
| CNC(=O)c1[nH]c(C(=O)NC2COC2)cc1OC(C)c1ccc(Cl)cc1 (single isomer, unassigned) [Example 31, 3-(1-(4-chlorophenyl)ethoxy)-N^2-methyl-N^5-(oxetan-3-yl)-1H-pyrrole-2,5-dicarboxamide] | – | 81 | > 60 | 36 | 15 | – | XX (Fold >50 and ≤200) | – | – |
| CNC(=O)c1[nH]c(C(=O)NC2CCC2)cc1OC(C)c1ccc(Cl)cc1F (single isomer, unassigned) [Example 35, 3-(1-(4-chloro-2-fluorophenyl)ethoxy)-N^5-cyclobutyl-N^2-methyl-1H-pyrrole-2,5-dicarboxamide] | ≥ 10000 | 67 | 46 | 30 | 65 | < 50 | XXX (Fold >200) | – | – |
| CNC(=O)c1[nH]c(C(=O)NC2COC2)cc1OC(C)c1ccc(Cl)cc1F (single isomer, unassigned) [Example 39, 3-(1-(4-chloro-2-fluorophenyl)ethoxy)-N^2-methyl-N^5-(oxetan-3-yl)-1H-pyrrole-2,5-dicarboxamide] | ≥ 10000 | 93 | > 60 | – | 11 | 50 to 200 | XX (Fold >50 and ≤200) | 30 | – |
| CCNC(=O)c1cc(OC(C)c2ccc(Br)cc2)c(C(=O)NC)[nH]1 (single isomer, unassigned) [Example 49, 3-(1-(4-bromophenyl)ethoxy)-N^5-ethyl-N^2-methyl-1H-pyrrole-2,5-dicarboxamide] | ≥ 10000 | 90 | – | – | – | < 50 | XXX (Fold >200) | – | > 60 |
| CCNC(=O)c1cc(OC(C)c2ccc(I)cc2)c(C(=O)NC)[nH]1 (single isomer, unassigned) [Example 51, N^5-ethyl-3-(1-(4-iodophenyl)ethoxy)-N^2-methyl-1H-pyrrole-2,5-dicarboxamide] | ≥ 10000 | 93 | – | – | – | < 50 | XXX (Fold >200) | – | > 60 |
| CCNC(=O)c1cc(OC(c2ccccc2)c2ccccc2)c(C(=O)NC)[nH]1 [Example 53, 3-(benzhydryloxy)-N^5-ethyl-N^2-methyl-1H-pyrrole-2,5-dicarboxamide] | ≥ 10000 | 91 | – | – | – | 50 to 200 | XX (Fold >50 and ≤200) | – | > 60 |
| CNC(=O)c1[nH]c(C(=O)NCC(F)(F)F)cc1O[C@@H](C)c1ccccc1 [Example 54, (S)—N^2-methyl-3-(1-phenylethoxy)-N^5-(2,2,2-trifluoroethyl)-1H-pyrrole-2,5-dicarboxamide] | ≥ 10000 | 93 | – | – | – | 50 to 200 | XX (Fold >50 and ≤200) | – | > 60 |
| CNC(=O)c1[nH]c(C(=O)NC(C)C)cc1O[C@@H](C)c1ccc(Cl)cc1 [Example 61, (S)-3-(1-(4-chlorophenyl)ethoxy)-N^5-isopropyl-N^2-methyl-1H-pyrrole-2,5-dicarboxamide] | ≥ 10000 | 81 | – | – | – | 50 to 200 | XX (Fold >50 and ≤200) | – | > 60 |
| CNC(=O)c1[nH]c(-c2ncc(C)[nH]2)cc1O[C@@H](C)c1ccccc1F [Example 68, (S)-3-(1-(2-fluorophenyl)ethoxy)-N-methyl-5-(5-methyl-1H-imidazol-2-yl)-1H-pyrrole-2-carboxamide] | ≥ 10000 | 75 | – | – | – | < 50 | XXX (Fold >200) | – | 23 |
| CNC(=O)c1[nH]c(-c2ncc(C)[nH]2)cc1O[C@@H](C)c1ccc(Cl)cc1 [Example 69, (S)-3-(1-(4-chlorophenyl)ethoxy)-N-methyl-5-(5-methyl-1H-imidazol-2-yl)-1H-pyrrole-2-carboxamide] | ≥ 10000 | 83 | – | – | – | < 50 | XXX (Fold >200) | – | 21 |
